{"source": "patent US4160829A", "about": "“Antibacterial 1,2,4-oxadiazolylacetamido cephalosporins” (Gist-Brocades N.V., priority 1972, dated 1979)", "key": {"Haem.infl. A 1030": {"system": "Haem.infl. A 1030", "assay": "micro serial dilution test", "format": "cell-based", "details": "micro serial dilution (in brackets), about 18 hours, 30° C. or 37° C."}, "Strep.haem. A 266": {"system": "Strep.haem. A 266", "assay": "agar serial dilution test", "format": "cell-based, Streptococcus haemolyticus", "details": "Streptococcus; agar serial dilution, 24 hours, 37° C.; read-out: minimal inhibitory concentration (MIC)"}, "[1]": {"system": "Pseud.aerug. Wyeth A 1058", "assay": "agar serial dilution test", "format": "cell-based", "details": "agar serial dilution, 24 hours, 37° C."}, "Prot.mirab. L 93": {"system": "Prot.mirab. L 93", "assay": "agar serial dilution test", "format": "cell-based, Proteus mirabilis", "details": "Proteus mirabilis; agar serial dilution, 24 hours, 37° C.; read-out: minimal inhibitory concentration (MIC)"}, "Prot.mirab. A 1200": {"system": "Prot.mirab. A 1200", "assay": "agar serial dilution test", "format": "cell-based, Proteus mirabilis", "details": "agar serial dilution, 24 hours, 37° C."}, "[2]": {"system": "Staph. aureus pen.resistant", "assay": "protection test", "format": "in vivo", "details": "Staphylococcus aureus, sc"}, "Prot.mirab. H 3": {"system": "Prot.mirab. H 3", "assay": "agar serial dilution test", "format": "cell-based, Proteus mirabilis", "details": "Proteus mirabilis, 24 h, read-out: minimal inhibitory concentration (MIC), agar serial dilution, 24 hours, 37° C."}, "Prot.rettg. A 821": {"system": "Prot.rettg. A 821", "assay": "agar serial dilution test", "format": "cell-based, Proteus rettgeri", "details": "agar serial dilution, 24 hours, 37° C."}, "Bac.Subt.ATCC 6633": {"system": "Bac.Subt.ATCC 6633", "assay": "agar serial dilution test", "format": "cell-based, Bacillus subtilis", "details": "agar serial dilution, 24 hours, 37° C."}, "Past.multo. A 723": {"system": "Past.multo. A 723", "assay": "agar serial dilution test", "format": "cell-based, Pasteurella multocida", "details": "agar serial dilution, 24 hours, 37° C."}, "Salm.dubl. P 43": {"system": "Salm.dubl. P 43", "assay": "agar serial dilution test", "format": "cell-based, Salmonella dublin", "details": "agar serial dilution, 24 hours, 37° C."}, "Staph.aureus A 355 [3]": {"system": "Staph.aureus A 355", "assay": "micro serial dilution test", "format": "cell-based, Staphylococcus aureus", "details": "micro serial dilution (in brackets), about 18 hours, 30° C. or 37° C.; penicillinase-producing strain"}, "Salm.typh. R 127": {"system": "Salm.typh. R 127", "assay": "agar serial dilution test", "format": "cell-based", "details": "24 hours, 37° C."}, "Staph.aureus A 2000 [4]": {"system": "Staph.aureus A 2000", "assay": "agar serial dilution test", "format": "cell-based, Staphylococcus aureus", "details": "agar serial dilution, 24 hours, 37° C."}, "Strep. faec. L 80": {"system": "Strep. faec. L 80", "assay": "agar serial dilution test", "format": "cell-based, Streptococcus faecalis", "details": "agar serial dilution, 24 hours, 37° C."}, "Staph.aureus A 321": {"system": "Staph.aureus A 321", "assay": "agar serial dilution test", "format": "cell-based, Staphylococcus aureus", "details": "agar serial dilution, 24 hours, 37° C."}, "Prot.morg. 2241": {"system": "Prot.morg. 2241", "assay": "agar serial dilution test", "format": "cell-based", "details": "agar serial dilution, 24 hours, 37° C."}, "Staph.aureus A 355 [5]": {"system": "Staph.aureus A 355", "assay": "agar serial dilution test", "details": "agar serial dilution, 24 hours, 37° C.; penicillinase-producing strain"}, "Proteus rettgeri": {"system": "Proteus rettgeri", "assay": "protection test", "format": "in vivo", "details": "Providencia rettgeri, sc; protection test, s.c.; read-out: ED50"}, "Escherichia coli": {"system": "Escherichia coli", "assay": "protection test", "format": "in vivo", "details": "ip"}, "Klebsiella pneumoniae": {"system": "Klebsiella pneumoniae", "assay": "protection test", "format": "in vivo", "details": "ip, protection test, i.p., read-out: ED50"}, "Staph.aureus A 2000 [6]": {"system": "Staph.aureus A 2000", "assay": "micro serial dilution test", "format": "cell-based, Staphylococcus aureus", "details": "micro serial dilution (in brackets), about 18 hours, 30° C. or 37° C."}, "Shig.equir. T 3": {"system": "Shig.equir. T 3", "assay": "agar serial dilution test", "format": "cell-based", "details": "24 hours, 37° C."}, "Staph.aureus A 2001 [7]": {"system": "Staph.aureus A 2001", "assay": "micro serial dilution test", "format": "cell-based, Staphylococcus aureus", "details": "micro serial dilution (in brackets), about 18 hours, 30° C. or 37° C."}, "Esch.coli U 20": {"system": "Esch.coli U 20", "assay": "agar serial dilution test", "format": "cell-based, Escherichia coli", "details": "Escherichia coli, U20; agar serial dilution, 24 hours, 37° C.; read-out: minimal inhibitory concentration (MIC)"}, "Staph.aureus A 2001 [8]": {"system": "Staph.aureus A 2001", "assay": "agar serial dilution test", "format": "cell-based, Staphylococcus aureus", "details": "agar serial dilution, 24 hours, 37° C."}, "in vivo": {"assay": "in vivo", "parameters": "species or system rabbits", "details": "rabbit, im, 50 mg/kg", "procedure": "Blood levels of the above mentioned test compound and of cephalotin were determined after an intramuscular administration of 50 mg/kg of these compounds in an aqueous solution in rabbits. After half an hour for the compound of Example 10, a value of 38.3 μg/ml was found and for cephalotin 33.9 μg/ml. In urine, 35.9% of the administered compound of Example 10 was retrieved, while in the case of cephalotin 22.2% was retrieved within six hours."}, "Pseud.aerug. 2396": {"system": "Pseud.aerug. 2396", "assay": "agar serial dilution test", "format": "cell-based", "details": "agar serial dilution, 24 hours, 37° C."}, "Pseud.aerug. H 10": {"system": "Pseud.aerug. H 10", "assay": "agar serial dilution test", "format": "cell-based", "details": "agar serial dilution, 24 hours, 37° C."}, "Bruc.melit. A 488": {"system": "Bruc.melit. A 488", "assay": "microbe, parasite or virus in culture", "format": "cell-based", "details": "Brucella melitensis, 24 h, read-out: minimal inhibitory concentration (MIC)"}, "acute toxicity in mice": {"assay": "acute toxicity in mice", "details": "mouse, in vivo, ip; mice (Swiss), one intraperitoneal administration", "procedure": "(a) For sodium 7-[(3-methyl-1,2,4-oxadiazol-5-yl)-acetamido]-cephalosporanate (as prepared in Example 10), the acute toxicity was determined in mice (Swiss) with one intraperitoneal administration. The LD50 appeared to be >6000 mg/kg (Cephalotin-LD50 >6000 mg/kg)."}}, "data": [{"smiles": "CC(=O)OCC1=C(C(=O)O)N2C(=O)[C@@H](NC(=O)Cc3nc(C)no3)[C@H]2SC1", "note": "[Example 10, 7-[(3-methyl-1,2,4-oxadiazol-5-yl)-acetamido]-cephalosporanic acid]", "values": [{"measurement": "minimal inhibitory concentration (MIC)", "setting": "Haem.infl. A 1030", "value": 125, "unit": "µg/mL"}, {"measurement": "MIC", "setting": "Strep.haem. A 266", "value": 0.03, "unit": "µg/mL"}, {"measurement": "minimal inhibitory concentration (MIC)", "setting": "[1]", "value": "> 100", "unit": "µg/mL"}, {"measurement": "MIC", "setting": "Prot.mirab. L 93", "value": 1.5, "unit": "µg/mL"}, {"measurement": "minimal inhibitory concentration (MIC)", "setting": "Prot.mirab. A 1200", "value": 6, "unit": "µg/mL"}, {"measurement": "ED50", "setting": "[2]", "value": 31, "unit": "mg/kg"}, {"measurement": "MIC", "setting": "Prot.mirab. H 3", "value": 12.5, "unit": "µg/mL"}, {"measurement": "minimal inhibitory concentration (MIC)", "setting": "Prot.rettg. A 821", "value": 3, "unit": "µg/mL"}, {"measurement": "minimal inhibitory concentration (MIC)", "setting": "Bac.Subt.ATCC 6633", "value": 0.25, "unit": "µg/mL"}, {"measurement": "minimal inhibitory concentration (MIC)", "setting": "Past.multo. A 723", "value": 1.5, "unit": "µg/mL"}, {"measurement": "minimal inhibitory concentration (MIC)", "setting": "Salm.dubl. P 43", "value": 3, "unit": "µg/mL"}, {"measurement": "minimal inhibitory concentration (MIC)", "setting": "Staph.aureus A 355 [3]", "value": 0.6, "unit": "µg/mL"}, {"measurement": "minimal inhibitory concentration (MIC)", "setting": "Salm.typh. R 127", "value": 3, "unit": "µg/mL"}, {"measurement": "minimal inhibitory concentration (MIC)", "setting": "Staph.aureus A 2000 [4]", "value": 1, "unit": "µg/mL"}, {"measurement": "minimal inhibitory concentration (MIC)", "setting": "Strep. faec. L 80", "value": 50, "unit": "µg/mL"}, {"measurement": "minimal inhibitory concentration (MIC)", "setting": "Staph.aureus A 321", "value": 0.25, "unit": "µg/mL"}, {"measurement": "minimal inhibitory concentration (MIC)", "setting": "Prot.morg. 2241", "value": 50, "unit": "µg/mL"}, {"measurement": "minimal inhibitory concentration (MIC)", "setting": "Staph.aureus A 355 [5]", "value": 1, "unit": "µg/mL"}, {"measurement": "ED50", "setting": "Proteus rettgeri", "value": 1.25, "unit": "mg/kg"}, {"measurement": "ED50", "setting": "Escherichia coli", "value": 120, "unit": "mg/kg"}, {"measurement": "ED50", "setting": "Klebsiella pneumoniae", "value": 2.3, "unit": "mg/kg"}, {"measurement": "minimal inhibitory concentration (MIC)", "setting": "Staph.aureus A 2000 [6]", "value": 0.9, "unit": "µg/mL"}, {"measurement": "minimal inhibitory concentration (MIC)", "setting": "Shig.equir. T 3", "value": 3, "unit": "µg/mL"}, {"measurement": "minimal inhibitory concentration (MIC)", "setting": "Staph.aureus A 2001 [7]", "value": 0.3, "unit": "µg/mL"}, {"measurement": "MIC", "setting": "Esch.coli U 20", "value": 6, "unit": "µg/mL"}, {"measurement": "minimal inhibitory concentration (MIC)", "setting": "Staph.aureus A 2001 [8]", "value": 1, "unit": "µg/mL"}, {"measurement": "concentration at 0.5 h", "setting": "in vivo", "value": 38300, "unit": "ng/mL"}, {"measurement": "minimal inhibitory concentration (MIC)", "setting": "Pseud.aerug. 2396", "value": "> 100", "unit": "µg/mL"}, {"measurement": "minimal inhibitory concentration (MIC)", "setting": "Pseud.aerug. H 10", "value": "> 100", "unit": "µg/mL"}, {"measurement": "MIC", "setting": "Bruc.melit. A 488", "value": 6, "unit": "µg/mL"}, {"measurement": "LD50", "setting": "acute toxicity in mice", "value": "> 6000", "unit": "mg/kg"}]}, {"smiles": "O=C(O)Cc1nc(Cc2ccccc2)no1", "note": "[Example 12A, 3-benzyl-1,2,4-oxadiazol-5-yl-acetic acid]", "values": [{"measurement": "antiphlogistic activity", "setting": "antiphlogistic activity", "value": "antiphlogistic activity"}]}]}
